Measurements published in US5516525A, “Vitamin D derivative feed compositions and methods of use” (University of Georgia Research Foundation, Inc., priority 1994, dated 1996).
“And” between values parts separate entries of the source, which are not always exact repeats. Identical values can stand only once.

What was measured:
phytate phosphorus = experiment: phytate (IP4, IP5, IP6) in feces, ferric chloride and HPLC procedures; type: in vivo, chicken (Petersen X Arbor Acre cockerels)
tibial dyschondroplasia = conditions: chickens, dietary level; cited from earlier work
bone ash = bone ash of left tibia (Example 1); conditions: in words
From the text: The left tibia was removed for bone ash determination on the fat-free bone.

[1] = system: phosphorus deficient rickets; experiment: phosphorus deficient rickets (Example 1); conditions: in words, Exp 1
From the text: The birds were also scored for phosphorus deficient rickets at the same time they were scored for tibial dyschondroplasia. Chickens which had normal proliferating prehypertrophied zone and a lengthened metaphyseal primary spongiosa were classified as phosphorus deficient rickets.
Ri is an abbreviation for rickets incidence.

[2] = blood plasma total calcium and dialyzable phosphorus; conditions: in words, Exp 1
Method: (§1) Ten newly hatched birds were randomly placed in each section of the Petersime batteries until the birds were nine days old. The measurements described below were calculated on a pen basis; all statistical analyses were conducted on pen averages. Blood samples were taken by cardiac puncture with heparinized syringes from one randomly chosen bird from each pen on the ninth day before weighing the birds.

[3] = 9-day body weight, feed consumption and gain:feed (Example 1); conditions: in words
Method: Newly hatched Petersen X Arbor Acre cockerels obtained from a commercial hatchery were used. Animals were housed in electrically heated Petersime battery brooders with wire-mesh floors located in a room in which the temperature was maintained at 22° C., fluorescent lights were on 24 hours each day in the room and the cages, and sunlight was present during the day from large windows. No attempt was made to limit the natural production of vitamin D3. Feed and water were available to the chickens at all times.
as §1
At nine days of age, pen body weights were obtained for all birds and their feed consumption was recorded. […] Briefly, using a three week old chicken as the reference animal, a score of zero indicates normal cartilage which is narrow with little irregularities. […] Deep irregularities are apparent. A score of three indicates a large mass of cartilage in the proximal end of the tibia. The birds were also scored for phosphorus deficient rickets at the same time they were scored for tibial dyschondroplasia. Chickens which had normal proliferating prehypertrophied zone and a lengthened metaphyseal primary spongiosa were classified as phosphorus deficient rickets. The left tibia was removed for bone ash determination on the fat-free bone.

[4] = system: conversion of 25(OH)D3 to 1,25(OH)2 D3; conditions: chickens made acidotic; cited from earlier work

| Structure (SMILES) | Feces excreted (phytate phosphorus; in vivo) | IP5 excretion, percent of total phytin phosphorus (phytate phosphorus; in vivo) | IP6 excretion, percent of total phytin phosphorus (phytate phosphorus; in vivo) | IP6 phytate phosphorus in feces by HPLC (phytate phosphorus; in vivo) | Phytate phosphorus retention, FeCl3 (phytate phosphorus; in vivo) | Phytate phosphorus retention, HPLC (phytate phosphorus; in vivo) | Phytin phosphorus retained (100 - total excreted) (phytate phosphorus; in vivo) | Total phytate phosphorus in feces by HPLC (phytate phosphorus; in vivo) | Total phytin phosphorus excreted (phytate phosphorus; in vivo) | amount of phosphorus in the feces (phytate phosphorus; in words, Exp 1) | tibial dyschondroplasia (effect of dietary factor) (tibial dyschondroplasia) | bone ash (bone ash) | incidence of phosphorus-deficient rickets [1] | blood plasma phosphorus [2] | nine day weight ([3]; Example 1) | gain:feed ratio ([3]; Exp 1) | conversion of 25(OH)D3 to 1,25(OH)2 D3 [4] |
| --- | --- | --- | --- | --- | --- | --- | --- | --- | --- | --- | --- | --- | --- | --- | --- | --- | --- |
| O.O=P([O-])([O-])O.[Na+].[Na+] [P, Na2 HPO4 H2 O] | 451 and 602 and 606 | 5.76% and 2.70% and 6.87% | 46.92% and 37.06% and 46.00% | 3.99 mg/g and 3.03 mg/g and 3.68 mg/g | 47 and 68 and 51 | 47 and 60 and 46 | 46.7% and 59.5% and 45.9% | 4.54 mg/g and 3.32 mg/g and 4.35 mg/g | 53.4% and 40.6% and 54.4% | approximately the same | accentuate the development of the lesions | increased | decreased | increased | increased nine day weights | increased | – |
| Cl.N [ammonium chloride] | – | – | – | – | – | – | – | – | – | – | – | – | – | – | – | – | reduced conversion |
